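The compound was tested at five concentrations on cells cultured in 96-well plates, with a 48-hour exposure period. Abbreviation: GI50, concentration required for 50% inhibition of growth. TGI: concentration producing complete growth inhibition.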
Columns and labels:
Test in all cases: NCI tumour cell line growth inhibition, 48 h
[1] = system: BT-549 breast
[2] = system: A498 renal
[3] = system: SN12C renal
[4] = system: NCI-H226 lung
[5] = system: MALME-3M melanoma
[6] = system: OVCAR-3 ovarian
[7] = system: NCI/ADR-RES ovarian
[8] = system: T-47D breast
[9] = system: PC-3 prostate
[10] = system: CCRF-CEM leukemia
[11] = system: IGROV1 ovarian
[12] = system: SK-OV-3 ovarian
[13] = system: EKVX NSCLC
[14] = system: HT29 colon
[15] = system: NCI-H522 lung
[16] = system: SR leukemia
[17] = system: NCI-H23 lung
[18] = system: SF-295 CNS
[19] = system: HCT-116 colon
[20] = system: SK-MEL-2 melanoma
[21] = system: M14 melanoma
[22] = system: U251 CNS
[23] = system: CAKI-1 renal
[24] = system: RXF 393 renal
[25] = system: UACC-257 melanoma
[26] = system: MCF7 breast
[27] = system: SF-268 CNS
[28] = system: COLO 205 colon
[29] = system: OVCAR-4 ovarian
[30] = system: SNB-75 CNS
[31] = system: OVCAR-5 ovarian
[32] = system: HL-60(TB) leukemia
[33] = system: HCT-15 colon
[34] = system: MOLT-4 leukemia
[35] = system: MDA-MB-435
[36] = system: SK-MEL-5 melanoma
[37] = system: HS 578T breast
[38] = system: 786-0 renal
[39] = system: A549 NSCLC
[40] = system: ACHN renal
[41] = system: MDA-MB-231 breast
[42] = system: NCI-H460 lung
[43] = system: DU-145 prostate
[44] = system: SK-MEL-28 melanoma
[45] = system: UO-31 renal
[46] = system: SF-539 CNS
[47] = system: LOX IMVI melanoma
[48] = system: OVCAR-8 ovarian
[49] = system: UACC-62 melanoma
[50] = system: RPMI-8226 leukemia
[51] = system: TK-10 renal
[52] = system: K-562 leukemia
[53] = system: HOP-92 NSCLC
[54] = system: KM12 colon
[55] = system: SW-620 colon
[56] = system: HOP-62 NSCLC
[57] = system: SNB-19 CNS
[58] = system: HCC-2998 colon

`COC(=O)c1oc2c(C(=O)/C=C/c3ccc(OC)cc3)c(OCCCN3CCCCC3)ccc2c1C` gave a GI50 [1] of 2.89 µM, a TGI [1] of 9.11 µM and a GI50 [2] of 1.44 µM. For the same compound, the TGI [2] was 4.54 µM, the GI50 [3] was 1.75 µM and the TGI [3] was 4.86 µM. The GI50 [4] was 2.32 µM, the TGI [4] was 6.38 µM and the GI50 [5] was 1.51 µM. The TGI [5] was 3.3 µM, the GI50 [6] was 1.63 µM and the TGI [6] was 3.72 µM. It also gave a GI50 [7] of 2.31 µM, a GI50 [8] of 1.42 µM and a TGI [8] of 4.89 µM. The GI50 [9] was 2.39 µM, the TGI [9] was 7.02 µM and the GI50 [10] was 0.783 µM. It also gave a TGI [10] of 3.4 µM, a GI50 [11] of 0.782 µM and a TGI [11] of 4.43 µM. The GI50 [12] was 1.25 µM, the TGI [12] was 4.35 µM and the GI50 [13] was 2.01 µM. It also gave a TGI [13] of 7.18 µM, a GI50 [14] of 1.49 µM and a TGI [14] of 3.22 µM. It also gave a GI50 [15] of 1.6 µM, a TGI [15] of 3.6 µM and a GI50 [16] of 1.45 µM. It also gave a TGI [16] of 3.78 µM, a GI50 [17] of 1.3 µM and a TGI [17] of 3.47 µM. It also gave a GI50 [18] of 1.8 µM, a TGI [18] of 3.93 µM and a GI50 [19] of 1.24 µM. It also gave a TGI [19] of 3.02 µM, a GI50 [20] of 1.87 µM and a TGI [20] of 7.65 µM. It also gave a GI50 [21] of 1.61 µM, a TGI [21] of 3.59 µM and a GI50 [22] of 1.49 µM. For the same compound, the TGI [22] was 2.88 µM, the GI50 [23] was 2.09 µM and the TGI [23] was 4.96 µM. For the same compound, the GI50 [24] was 0.066 µM, the TGI [24] was 0.487 µM and the GI50 [25] was 1.32 µM. For the same compound, the TGI [25] was 2.88 µM, the GI50 [26] was 1.15 µM and the TGI [26] was 2.5 µM. It also gave a GI50 [27] of 2.24 µM, a TGI [27] of 4.69 µM and a GI50 [28] of 1.51 µM. The TGI [28] was 3.13 µM, the GI50 [29] was 2.49 µM and the TGI [29] was 9.15 µM. It also gave a GI50 [30] of 1.89 µM, a TGI [30] of 6.37 µM and a GI50 [31] of 2.31 µM. It also gave a TGI [31] of 6.17 µM, a GI50 [32] of 0.872 µM and a TGI [32] of 2.7 µM. For the same compound, the GI50 [33] was 0.901 µM, the TGI [33] was 2.35 µM and the GI50 [34] was 1.6 µM. The TGI [34] was 4.97 µM, the GI50 [35] was 1.67 µM and the TGI [35] was 3.68 µM. It also gave a GI50 [36] of 1.72 µM, a TGI [36] of 3.17 µM and a GI50 [37] of 2.58 µM. For the same compound, the GI50 [38] was 1.49 µM, the TGI [38] was 3.11 µM and the GI50 [39] was 2.04 µM. For the same compound, the TGI [39] was 5.28 µM, the GI50 [40] was 1.03 µM and the TGI [40] was 2.54 µM. For the same compound, the GI50 [41] was 1.69 µM, the TGI [41] was 3.78 µM and the GI50 [42] was 1.54 µM. For the same compound, the TGI [42] was 3.18 µM, the GI50 [43] was 1.18 µM and the TGI [43] was 2.57 µM. The GI50 [44] was 0.85 µM, the TGI [44] was 2.33 µM and the GI50 [45] was 1.6 µM. The TGI [45] was 4.55 µM, the GI50 [46] was 1.45 µM and the TGI [46] was 2.91 µM. For the same compound, the GI50 [47] was 1.45 µM, the TGI [47] was 2.82 µM and the GI50 [48] was 1.67 µM. For the same compound, the TGI [48] was 4.23 µM, the GI50 [49] was 1.54 µM and the TGI [49] was 3 µM. It also gave a GI50 [50] of 1.72 µM, a TGI [50] of 4 µM and a GI50 [51] of 2.04 µM. For the same compound, the TGI [51] was 5.71 µM, the GI50 [52] was 2.6 µM and the GI50 [53] was 0.808 µM. The TGI [53] was 2.59 µM, the GI50 [54] was 1.7 µM and the TGI [54] was 3.66 µM. For the same compound, the GI50 [55] was 1.38 µM, the TGI [55] was 3.03 µM and the GI50 [56] was 1.67 µM. It also gave a TGI [56] of 3.48 µM, a GI50 [57] of 2.1 µM and a TGI [57] of 8.92 µM.
With `O=[N+]([O-])c1ccc2[nH]cc(-c3c4ccccc4cc4[nH]c5ccc([N+](=O)[O-])cc5c34)c2c1` the GI50 [1] was 2.29 µM, the TGI [1] was 5.94 µM and the GI50 [2] was 1.53 µM. The TGI [2] was 4.25 µM, the GI50 [3] was 2.84 µM and the TGI [3] was 7.92 µM. It also gave a GI50 [4] of 2.2 µM, a TGI [4] of 5.8 µM and a GI50 [5] of 2.32 µM. The TGI [5] was 6.77 µM, the GI50 [6] was 2.57 µM and the TGI [6] was 7.32 µM. It also gave a GI50 [7] of 2.91 µM, a TGI [7] of 11.5 µM and a GI50 [8] of 1.71 µM. It also gave a TGI [8] of 4.74 µM, a GI50 [9] of 1.9 µM and a TGI [9] of 4.43 µM. It also gave a GI50 [10] of 2.38 µM, a TGI [10] of 6.71 µM and a GI50 [11] of 2.15 µM. It also gave a TGI [11] of 4.68 µM, a GI50 [12] of 3.38 µM and a TGI [12] of 10.8 µM. For the same compound, the GI50 [13] was 2.4 µM, the TGI [13] was 8.41 µM and the GI50 [14] was 3.62 µM. For the same compound, the TGI [14] was 11.3 µM, the GI50 [15] was 2.12 µM and the TGI [15] was 6.1 µM. For the same compound, the GI50 [16] was 2.86 µM, the TGI [16] was greater than 100 µM and the GI50 [17] was 2.59 µM. For the same compound, the TGI [17] was 8.11 µM, the GI50 [18] was 1.63 µM and the TGI [18] was 3.73 µM. For the same compound, the GI50 [19] was 2.16 µM, the TGI [19] was 5 µM and the GI50 [20] was 2.18 µM. It also gave a TGI [20] of 5.34 µM, a GI50 [21] of 1.67 µM and a TGI [21] of 3.22 µM. For the same compound, the GI50 [22] was 2.81 µM, the TGI [22] was 8.41 µM and the GI50 [23] was 1.8 µM. The TGI [23] was 3.64 µM, the GI50 [24] was 2.03 µM and the TGI [24] was 4.73 µM. It also gave a GI50 [25] of 2.45 µM, a TGI [25] of 7.13 µM and a GI50 [26] of 1.65 µM. It also gave a TGI [26] of 3.73 µM, a GI50 [27] of 2.66 µM and a TGI [27] of 9.57 µM. For the same compound, the GI50 [28] was 2.46 µM, the TGI [28] was 7 µM and the GI50 [29] was 1.57 µM. For the same compound, the TGI [29] was 3.02 µM, the GI50 [30] was 1.84 µM and the TGI [30] was 5.93 µM. It also gave a GI50 [31] of 2.21 µM, a TGI [31] of 5.94 µM and a GI50 [33] of 1.88 µM. It also gave a TGI [33] of 4.49 µM, a GI50 [34] of 2.45 µM and a TGI [34] of 6.55 µM. The GI50 [35] was 1.8 µM, the TGI [35] was 4.89 µM and the GI50 [36] was 1.62 µM. It also gave a TGI [36] of 2.98 µM, a GI50 [37] of 2.35 µM and a TGI [37] of 8.19 µM. For the same compound, the GI50 [38] was 1.94 µM, the TGI [38] was 4.09 µM and the GI50 [39] was 2.07 µM. The TGI [39] was 4.8 µM, the GI50 [40] was 2.42 µM and the TGI [40] was 6.97 µM. For the same compound, the GI50 [41] was 2.27 µM, the TGI [41] was 5.83 µM and the GI50 [42] was 2.72 µM. It also gave a TGI [42] of 7.7 µM, a GI50 [43] of 2.26 µM and a TGI [43] of 5.09 µM. The GI50 [44] was 1.8 µM, the TGI [44] was 3.71 µM and the GI50 [45] was 1.76 µM. The TGI [45] was 5.1 µM, the GI50 [46] was 2 µM and the TGI [46] was 4.98 µM. The GI50 [47] was 1.92 µM, the TGI [47] was 4.14 µM and the GI50 [58] was 2.33 µM. For the same compound, the TGI [58] was 4.58 µM, the GI50 [48] was 2.59 µM and the TGI [48] was 8.17 µM. The GI50 [49] was 1.63 µM, the TGI [49] was 3.47 µM and the GI50 [50] was 2.27 µM. For the same compound, the TGI [50] was 6.32 µM, the GI50 [51] was 2.59 µM and the TGI [51] was 6.79 µM. For the same compound, the GI50 [52] was 3.5 µM, the TGI [52] was greater than 100 µM and the GI50 [53] was 2.25 µM. The TGI [53] was 5.89 µM, the GI50 [54] was 1.78 µM and the TGI [54] was 3.37 µM. It also gave a GI50 [55] of 2.73 µM, a TGI [55] of 8.84 µM and a GI50 [56] of 2.54 µM. For the same compound, the TGI [56] was 7.25 µM, the GI50 [57] was 2.88 µM and the TGI [57] was 9.13 µM.
